Experiments:
human NK1 receptors = biological target: T1, human NK1 receptors (Homo sapiens, UniProt P25103); assay: Binding of the test substances to NK1 receptors in vitro ([3H]-Substance P displacement, CHO cell membranes); conditions: [3H]-Substance P as ligand; membranes of CHO cells expressing the human NK1 receptor; Ki calculated from IC50; read-out: pKi (NK1) (converted)
T1 construct: expressed in transfected cells; host or cells: CHO cells (membrane preparation)
Experimental: In The Netherlands, the affinity of the test substances to human NK1 receptors was measured in vitro.
The receptor binding studies were performed with [^3H]-Substance P as ligand. For the binding test, different samples of a membrane preparation of CHO cells (= egg cells of the Chinese hamster, Chinese hamster oocytes), which express the human NK1 receptor ("Accession Number" of the associated nucleic acid sequence = M74290; "Accession Number" of the associated protein sequence = P25103; cf. Takeda, Y.; Chou, K. B., Takeda, J.; Sachais, B.S. and Krause, J. E; Biochemical and Biophysical Research Communications, 179(3) (1991) 1232 - 1240), were incubated with a solution of the marked ligand, with the incubation mixtures containing no test substance or additions of different concentrations of test substance. Then, separation of bound and free ligands was performed in each of the samples with the aid of glass-fibre filtration. The fraction remaining in the filter was washed several times with buffer solution and then the radioactivity of the fraction remaining in the filter was measured using a beta scintillation counter.
For the compounds of Examples 1 to 14, that concentration which effects half maximum displacement of the bound ligand was determined as IC50 of the respective test substance. From this, the corresponding inhibition constant (Ki value) of the test substance was calculated, and was stated as the negative common logarithm of the Ki value (= pKi value). The pKi value is a measurement of the affinity of the test substances to human NK1 receptors.

NK1 receptors = NK1 receptors (Cavia porcellus, UniProt P30547); assay: Functional NK1 antagonism on isolated guinea pig aorta ring preparations (Substance P induced relaxation); design: from tissue; host or cells: guinea pig aorta ring preparations; species or system Pirbright-White guinea pigs
Experimental: In The Netherlands, the action antagonistic to NK1 receptors of the test substances was measured in vitro on isolated ring preparations, kept in an oxygenated nutrient solution, of the aortas of Pirbright-White guinea pigs.
In order to measure the contraction of the vessel muscles, the preparations were fixed to a hook, joined by a thread to a force measuring apparatus and the contractions were recorded in each case on a plotter. The aorta preparations were tonicised with phenylephrine. […] The relaxations before and after the administration of the test substance were quantified in percent. The effective concentration of the half maximum inhibition of the relaxation of the tone (= EC50) was calculated. The negative common logarithm of the EC50 value (= pEC50) was given as characteristic variable. The pEC50 value is a measurement of the functional effectiveness of the test substances on NK1 receptors.

[1] = biological target: T2, cloned human NK1 receptors (Homo sapiens, UniProt P25103); assay: Ca2+ measurements using FLIPR for NK1 activity in CHO cells; format: cell-based; conditions: substance P 10^-8 M as agonist; compound applied 7 min before; pA2 calculated from IC50
T2 construct: expressed in transfected cells
Text: (§1) The NK receptor is coupled to Gq.
(§2) All steps were done under sterile conditions. […] The results are summarized in table 5: Table 5: pA2 data for NK1 and NK2: […]

[2] = biological target: T3, cloned human NK2 receptors (Homo sapiens, UniProt P21452); assay: Ca2+ measurements using FLIPR for NK2 activity in CHO cells; format: cell-based; conditions: NKA 10^-7 M as agonist; compound applied 7 min before; pA2 calculated from IC50
T3 construct: expressed in transfected cells
T3 sequence (P21452 1-398): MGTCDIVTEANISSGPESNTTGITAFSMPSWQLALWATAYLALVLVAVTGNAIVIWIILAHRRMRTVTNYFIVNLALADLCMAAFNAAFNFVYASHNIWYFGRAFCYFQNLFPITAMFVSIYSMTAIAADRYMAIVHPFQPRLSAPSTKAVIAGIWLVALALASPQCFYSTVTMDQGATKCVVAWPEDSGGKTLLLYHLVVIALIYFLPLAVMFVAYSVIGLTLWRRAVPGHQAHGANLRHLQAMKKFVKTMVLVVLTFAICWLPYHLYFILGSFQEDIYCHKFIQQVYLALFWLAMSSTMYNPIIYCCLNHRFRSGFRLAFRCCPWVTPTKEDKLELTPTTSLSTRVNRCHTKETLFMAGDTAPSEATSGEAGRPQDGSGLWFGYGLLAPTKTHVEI
Text: as §1, §2

NK1 receptors, sequence (P30547 whole entry): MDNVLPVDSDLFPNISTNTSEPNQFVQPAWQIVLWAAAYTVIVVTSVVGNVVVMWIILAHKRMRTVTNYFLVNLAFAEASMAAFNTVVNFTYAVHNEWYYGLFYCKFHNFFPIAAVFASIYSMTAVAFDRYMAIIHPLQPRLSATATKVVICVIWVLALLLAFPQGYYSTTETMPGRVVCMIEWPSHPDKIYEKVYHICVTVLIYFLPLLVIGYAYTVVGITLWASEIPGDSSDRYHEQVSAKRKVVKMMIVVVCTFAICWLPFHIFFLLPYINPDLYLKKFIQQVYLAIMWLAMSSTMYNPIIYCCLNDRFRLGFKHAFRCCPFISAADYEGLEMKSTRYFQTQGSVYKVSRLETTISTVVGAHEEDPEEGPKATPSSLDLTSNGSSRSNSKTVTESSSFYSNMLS
T1 sequence (P25103 whole entry): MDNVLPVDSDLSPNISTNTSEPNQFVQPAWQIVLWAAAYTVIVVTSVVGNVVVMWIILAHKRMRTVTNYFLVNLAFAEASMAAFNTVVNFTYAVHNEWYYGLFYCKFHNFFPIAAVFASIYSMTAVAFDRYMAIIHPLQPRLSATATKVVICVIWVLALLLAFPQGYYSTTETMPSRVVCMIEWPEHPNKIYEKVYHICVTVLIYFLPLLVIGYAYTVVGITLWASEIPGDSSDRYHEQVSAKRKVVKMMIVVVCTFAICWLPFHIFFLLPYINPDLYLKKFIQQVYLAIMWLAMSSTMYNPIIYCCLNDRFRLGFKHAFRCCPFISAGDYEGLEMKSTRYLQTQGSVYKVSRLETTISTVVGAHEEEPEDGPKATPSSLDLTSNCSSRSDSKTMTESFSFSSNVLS
T2 sequence (P25103 whole entry): as above

CN(C[C@@H](CCN1CCN([C@@H](c2ccco2)[C@H](O)[C@@H](O)[C@H](O)CO)CC1)c1ccc(Cl)c(Cl)c1)C(=O)c1cc(C#N)cc2ccccc12 [Compound 2, 3-cyano-N-[(2S)-2-(3,4-dichlorophenyl)-4-{4-[(1R,2S,3R,4R)-1-(2-furyl)-2,3,4,5-tetrahydroxypentyl]piperazin-1-yl}butyl]-N-methyl-1-naphthamide]
Ki (human NK1 receptors): 3.16 nM
EC50 (NK1 receptors): 0.316 nM

CN(C[C@@H](CCN1CCN([C@@H](c2ccco2)[C@H](O)CO)CC1)c1ccc(Cl)c(Cl)c1)C(=O)c1cc(C#N)cc2ccccc12 [Compound 1, 3-cyano-N-[(2S)-2-(3,4-dichlorophenyl)-4-{4-[(1R,2S)-1-(2-furyl)-2,3-dihydroxypropyl]piperazin-1-yl}butyl]-N-methyl-1-naphthamide]
Ki (human NK1 receptors): 3.98 nM
Kb [1]: 1.26 nM
Kb [2]: 10 nM
EC50 (NK1 receptors): 0.398 nM

CN(C[C@@H](CCN1CCN(C(CO)(CO)c2ccco2)CC1)c1ccc(Cl)c(Cl)c1)C(=O)c1cc(C#N)cc2ccccc12 [Compound 6, 3-cyano-N-[(2S)-2-(3,4-dichlorophenyl)-4-{4-[1-(2-furyl)-2-hydroxy-1-(hydroxymethyl)ethyl]piperazin-1-yl}butyl]-N-methyl-1-naphthamide]
Ki (human NK1 receptors): 5.01 nM
EC50 (NK1 receptors): 0.398 nM

CN(C[C@@H](CCN1CCN([C@@H](c2ccco2)[C@H]2COC(=O)O2)CC1)c1ccc(Cl)c(Cl)c1)C(=O)c1cc(C#N)cc2ccccc12 [Compound 11, 3-cya no-N-[(2S)-2-(3,4-dichlorophenyl)-4-(4-{(R)-2-furyl[(4S)-2-oxo-1,3-dioxolan-4-yl]methyl}piperazin-1-yl)butyl]-N-methyl-1-naphthamide]
Ki (human NK1 receptors): 7.94 nM
EC50 (NK1 receptors): 1.26 nM

— patent EP1954678B1, “NOVEL NK1 AND NK2 ANTAGONISTS” (Abbott Products GmbH, priority 2005, dated 2007)
